The values below come from patent US8420630B2 (Boehringer Ingelheim Pharma GmbH & Co. KG, priority 2001, dated 2013).

Some results are limits rather than exact numbers.

T1 sequence (P06493 whole entry): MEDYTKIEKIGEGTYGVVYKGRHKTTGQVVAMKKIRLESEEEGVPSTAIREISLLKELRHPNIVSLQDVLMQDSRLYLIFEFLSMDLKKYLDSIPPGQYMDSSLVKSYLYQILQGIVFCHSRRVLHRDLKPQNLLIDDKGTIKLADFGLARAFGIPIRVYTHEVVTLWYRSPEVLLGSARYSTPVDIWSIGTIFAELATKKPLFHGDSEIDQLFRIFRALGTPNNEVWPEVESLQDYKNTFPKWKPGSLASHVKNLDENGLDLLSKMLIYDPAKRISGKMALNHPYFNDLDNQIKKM
T1 sequence (P14635 whole entry partner): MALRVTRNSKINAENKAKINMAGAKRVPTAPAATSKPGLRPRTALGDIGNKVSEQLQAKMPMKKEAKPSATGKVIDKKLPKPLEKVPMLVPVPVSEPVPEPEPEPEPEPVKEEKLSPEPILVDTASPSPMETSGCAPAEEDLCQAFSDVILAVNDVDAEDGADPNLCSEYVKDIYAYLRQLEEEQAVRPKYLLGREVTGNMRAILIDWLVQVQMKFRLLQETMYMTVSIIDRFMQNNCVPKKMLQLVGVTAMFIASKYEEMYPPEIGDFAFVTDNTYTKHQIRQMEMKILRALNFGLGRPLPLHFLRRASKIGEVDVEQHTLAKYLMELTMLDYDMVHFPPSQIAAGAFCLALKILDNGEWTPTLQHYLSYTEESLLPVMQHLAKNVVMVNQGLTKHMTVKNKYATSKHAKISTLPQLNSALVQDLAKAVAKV

This assay addresses T1, CDK1/cyclinB1 (Homo sapiens, UniProt P06493).
T1 construct: made in house; host or cells: High Five insect cells (Trichoplusia ni), baculovirus coinfection
Put plainly: Cyclin B1-CDK1 kinase inhibition test. The settings on record: CDK1 tests (Example 13); recombinant cyclin B1/CDK1, substrate histone H1; read-out: CDK1/cyclinB1 IC50 value. It is filed as biochemical. As for the experimental part: CDK4) were cloned by standard methods using RT-PCR, and cloned into a transfer vector (cyclin in pAcG2T made by Pharmingen, CDKs in p2Bac made by Invitrogen) for the baculovirus system. […] After thawing the cells were resuspended in lysing buffer (50 mM HEPES pH 7.5, 10 mM MgCl2, 1 mM DTT, 5 μg/ml leupeptin, 5 μg/ml aprotinin, 100 μM NaF, 100 μM PMSF, 10 mM β-glycerolphosphate, 100 μM Na3VO4, 30 mM nitrophenylphosphate, 17.5 ml of lysing buffer per 10^8 cells) and incubated on ice for 30 min. […] Cyclin D1-CDK4 was purified by means of a GST-tag on cyclin D1 and then using glutathione beads (total protein about 0.2 mg/ml). All the kinase tests were carried out in 96-well microtitre plates (Greiner PS) in a final volume of 60 μl. […] As a negative control the kinase reaction was carried out in the absence of the substrate histone H1. As a positive control the kinase reaction was carried out in the absence of a test substance. As an internal control 30 μM and 300 μM (final concentration) of the kinase inhibitor olomoucin (Alexis) were used. […] The kinase reaction is started by the addition of 10 μl of ATP mix (0.045 mM ATP, 0.5 μCi ^33P-ATP in kinase buffer) and incubated for 30 min at 30° C. and 600 rpm in a shaking incubator. After incubation the plates were placed on ice and the proteins were precipitated by the addition of 125 μl of ice-cold 5% trichloroacetic acid. After 15 min on ice the precipitates were transferred onto Packard Unifilter 96 GF/B plates with the Packard Harvester System, and collected by vacuum filtration. The precipitates were washed 4 times with dist. H2O at ambient temperature. The filter plates were then dried at 60° C. and 50 μl of scintillation liquid were added to each well (Ultima Gold, Packard). The plate was sealed up with Sealing Tape and after 1 h measured in a scintillation measuring apparatus (Micro Beta made by Wallac).
As to `CC(=O)NCCNc1nc(Nc2ccc3cnn(C)c3c2)ncc1C(F)(F)F` [Example 1(654), N-{2-[2-(1-methyl-1H-indazol-6-ylamino)-5-trifluoromethyl-pyrimidin-4-ylamino]-ethyl}-acetamide], the IC50 was less than 100 nM.

Consider `NC1CCCC(Nc2nc(Nc3ccc4ccccc4c3)ncc2C(F)(F)F)C1` (stereo not drawn) [Example 1(039), 2-(2-naphthylamino)-4-(3-amino-cyclohexylamino)-5-trifluoromethyl-pyrimidine], for which the IC50 was less than 100 nM.

Take `CN(C)S(=O)(=O)c1ccc(Nc2ncc(C(F)(F)F)c(N3CCc4nc[nH]c4C3)n2)cc1` [Example 1(694), N,N-dimethyl-4-[4-(3,4,6,7-tetrahydro-imidazo[4,5-c]pyridin-5-yl)-5-trifluoromethyl-pyrimidin-2-ylamino]-phenylsulphonamide]: the IC50 was less than 100 nM.

Regarding `Brc1cnc(Nc2ccc3cn[nH]c3c2)nc1N1CCc2nc[nH]c2CC1` [Example 2(141), [5-Bromo-4-(4,5,7,8-tetrahydro-1H-imidazo[4,5-d]azepin-6-yl)-pyrimidin-2-yl]-(1H-indazol-6-yl)-amine], the IC50 is less than 100 nM.

In the case of `CC(=O)NCCNc1nc(Nc2cccc(S(=O)(=O)N(C)C)c2)ncc1C(F)(F)F` [Example 1(651), N-{2-[2-(3-dimethylsulphamoyl-phenylamino)-5-trifluoromethyl-pyrimidin-4-ylamino]-ethyl}-acetamide], the IC50 was less than 100 nM.

With `Cn1ncc2ccc(Nc3ncc(C(F)(F)F)c(NCCCNC(=O)Cc4ccccc4)n3)cc21` [Example 7(021), N-{3-[2-(1-methyl-1H-indazol-6-ylamino)-5-trifluoromethyl-pyrimidin-4-ylamino]-propyl}-2-phenyl-acetamide], the IC50 was less than 100 nM.

Consider `Cc1cnc(Nc2ccc3cn[nH]c3c2)nc1NCCCN1CCCC1=O` [Example 2(075), 1-{3-[2-(1H-indazol-6-ylamino)-5-methyl-pyrimidin-4-ylamino]-propyl}-pyrrolidin-2-one], for which the IC50 was less than 100 nM.

With `O=C1CCCN1CCCNc1nc(Nc2cccc(Br)c2)ncc1C(F)(F)F` [Example 1(047), 2-(3-bromo-phenylamino)-4-(3-(2-oxo-pyrrolidin-1-yl)-propyl-1-amino)-5-trifluoromethyl-pyrimidine], the IC50 was less than 100 nM.

Consider `CC(=O)NCCNc1nc(Nc2ccc(S(=O)(=O)Nc3ccccn3)cc2)ncc1C(F)(F)F` [Example 2(059), N-(2-{2-[4-(Pyridin-2-ylsulphamoyl)-phenylamino]-5-trifluoromethyl-pyrimidin-4-ylamino}-ethyl)-acetamide], for which the IC50 is less than 100 nM.

Regarding `O=[N+]([O-])c1ccccc1CNc1nc(Nc2ccc(Cl)c(Cl)c2)ncc1C(F)(F)F` [Example 1(016), 2-(3,4-dichloro-phenylamino)-4-(2-nitrobenzylamino)-5-trifluoromethyl-pyrimidine], the IC50 was less than 100 nM.

Consider `CC(=O)NCCNc1nc(Nc2ccc3[nH]cnc3c2)ncc1C(F)(F)F` [Example 2(043), N-{2-[2-(1H-Benzimidazol-5-ylamino)-5-trifluoromethyl-pyrimidin-4-ylamino]-ethyl}-acetamide], for which the IC50 was less than 100 nM.

Turning to `CC(=O)NCCNc1nc(Nc2ccc(C(=O)NCc3cc(F)cc(F)c3)cc2)ncc1C(F)(F)F` [Example 8(026), 4-[4-(2-acetylamino-ethylamino)-5-trifluoromethyl-pyrimidin-2-ylamino]-N-(3,5-difluorobenzyl)-benzamide], the IC50 is less than 100 nM.

With `NCC1CCN(c2nc(Nc3cccc(Br)c3)ncc2[N+](=O)[O-])CC1` [Example 1(042), 2-(3-bromo-phenylamino)-4-(4-aminomethyl-piperidin-1-yl)-5-nitro-pyrimidine], the IC50 was less than 100 nM.

In the case of `O=C1CCCN1CCCNc1nc(Nc2ccc3[nH]nnc3c2)ncc1C(F)(F)F` [Example 2(036), 1-{3-[2-(1H-Benzotriazol-5-ylamino)-5-trifluoromethyl-pyrimidin-4-ylamino]-propyl}-pyrrolidin-2-one], the IC50 is less than 100 nM.

For `CC(=O)NCCNc1nc(Nc2ccc3cn[nH]c3c2)ncc1C(F)(F)F` [Example 2(044), N-{2-[2-(1H-Indazol-6-ylamino)-5-trifluoromethyl-pyrimidin-4-ylamino]-ethyl}-acetamide], the IC50 was less than 100 nM.

Regarding `CC(=O)NCCNc1nc(Nc2ccc(N(C)S(C)(=O)=O)cc2)ncc1C(F)(F)F` [Example 2(011), 2-(4-(N-Methyl-N-methylsulphonyl)amino-phenylamino)-4-(2-acetylamino-ethylamino)-5-trifluoromethyl-pyrimidine], the IC50 is less than 100 nM.

`CN(C)S(=O)(=O)c1ccc(Nc2ncc(Cl)c(N3CCc4[nH]cnc4C3)n2)cc1` [Example 2(136), 4-[5-Chloro-4-(1,4,6,7-tetrahydro-imidazo[4,5-c]pyridin-5-yl)-pyrimidin-2-ylamino]-N,N-dimethyl-phenylsulphonamide]: the IC50 was less than 100 nM.

On to `COCCNc1nc(Nc2ccc(Cl)c(Cl)c2)ncc1C(F)(F)F` [Example 1(093), 2-(3,4-dichloro-phenylamino)-4-(2-methoxy-1-ethylamino)-5-trifluoromethyl-pyrimidine], for which the IC50 is less than 100 nM.

Take `FC(F)(F)c1cnc(Nc2ccccc2)nc1N1CCc2[nH]cnc2C1` [Example 1(118), 2-phenylamino-4-(1,4,6,7-tetrahydro-imidazo[4,5-c]pyridin-5-yl)-5-trifluoromethyl-pyrimidine]: the IC50 is less than 100 nM.

As for `CC(=O)NCCCNc1nc(Nc2ccc(Cl)c(Cl)c2)ncc1C(F)(F)F` [Example 7(010), N-(3-[2-(3,4-dichloro-phenylamino)-5-trifluoromethyl-pyrimidin-4-ylamino]-propyl)-acetamide], the IC50 is less than 100 nM.

`O=C(O)c1ccc(Nc2ncc([N+](=O)[O-])c(N3CCc4[nH]cnc4C3)n2)cc1` [Example 1(029), 2-(4-carboxy-phenylamino)-4-(1,4,6,7-tetrahydro-imidazo[4,5-c]pyridin-5-yl)-5-nitro-pyrimidine]: the IC50 was less than 100 nM.

Consider `O=[N+]([O-])c1ccc(Nc2ncc([N+](=O)[O-])c(N3CCc4[nH]cnc4C3)n2)cc1` [Example 1(027), 2-(4-nitro-phenylamino)-4-(1,4,6,7-tetrahydro-imidazo[4,5-c]pyridin-5-yl)-5-nitro-pyrimidine], for which the IC50 is less than 100 nM.

On to `CN(C)S(=O)(=O)c1ccc(Nc2ncc(C(F)(F)F)c(NCCCN3CCCC3=O)n2)cc1` [Example 2(041), N,N-Dimethyl-4-{4-[3-(2-oxo-pyrrolidin-1-yl)-propylamino]-5-trifluoromethyl-pyrimidin-2-ylamino}-phenylsulphonamide], for which the IC50 is less than 100 nM.

As to `CC(=O)NCC(C)(C)Nc1nc(Nc2ccc(S(=O)(=O)N3CCOCC3)cc2)ncc1C(F)(F)F` [Example 1(585), N-(2-Methyl-2-{2-[4-(morpholin-4-sulphonyl)-phenylamino]-5-trifluoromethyl-pyrimidin-4-ylamino}-propyl)-acetamide], the IC50 was less than 100 nM.

As for `O=C1CCCN1CCCNc1nc(Nc2cccc(Cl)c2)ncc1C(F)(F)F` [Example 1(067), 2-(3-chloro-phenylamino)-4-(3-(2-oxo-pyrrolidin-1-yl)-propyl-1-amino)-5-trifluoromethyl-pyrimidine], the IC50 is less than 100 nM.

On to `NCCCNc1nc(Nc2ccc(C(N)=O)cc2)ncc1C(F)(F)F` [Example 1(693), 4-[4-(3-aminopropylamino)-5-trifluoromethyl-pyrimidin-2-ylamino]benzamide], for which the IC50 is less than 100 nM.

`CC(=O)NCCNc1nc(Nc2ccc(S(=O)(=O)N(C)C)cc2)ncc1C(F)(F)F` [Example 2(047), N-{2-[2-(4-Dimethylsulphamoyl-phenylamino)-5-trifluoromethyl-pyrimidin-4-ylamino]-ethyl}-acetamide]: the IC50 is less than 100 nM.

For the compound `CC(=O)NCCNc1nc(Nc2ccc(S(=O)(=O)N3CCN(C)CC3)cc2)ncc1C(F)(F)F` [Example 2(058), N-(2-{2-[4-(4-Methyl-piperazin-1-sulphonyl)-phenylamino]-5-trifluoromethyl-pyrimidin-4-ylamino}-ethyl)-acetamide], the IC50 is less than 100 nM.

Consider `FC(F)(F)c1cnc(Nc2cccc(Cl)c2)nc1N1CCc2[nH]cnc2C1` [Example 1(005), 2-(3-chlorophenylamino)-4-(1,4,6,7-tetrahydro-imidazo[4,5-c]pyridin-5-yl)-5-trifluoromethyl-pyrimidine], for which the IC50 is less than 100 nM.

For `CC(=O)NCC1CCCN(c2nc(Nc3ccc(Cl)c(Cl)c3)ncc2C(F)(F)F)C1` (stereo not drawn) [Example 1(040), 2-(3,4-dichloro-phenylamino)-4-(3-acetylaminomethyl-piperidin-1-yl)-5-trifluoromethyl-pyrimidine], the IC50 was less than 100 nM.
